Assays:
[1] = system: Cellulolytic Enzyme Composition #1; assay: mini-scale PCS hydrolysis by Cellulolytic Enzyme Composition #1; type: biochemical, Trichoderma reesei; conditions: 10 mM FeSO4; 43 g PCS and 0.25 g enzyme per liter, pH 5, 50° C.
Protocol: (§1) The effect of various salts (FeSO4, FeCl2, NaCl, Na2SO4, MnSO4, MnCl2) was determined in the hydrolysis of PCS by Cellulolytic Enzyme Composition #2. The PCS hydrolysis was performed in duplicate in capped 1.7 ml EPPENDORF® tubes (“mini-scale”) containing 1 ml suspensions of 43.4 g of PCS (dry weight) per liter, 10 mM salts in 50 mM sodium acetate pH 5. Cellulolytic Enzyme Composition #2 was added at 0.25 g per liter. Reactions without the addition of the salt served as controls. The capped tubes were incubated at 50° C. in an INNOVA® 4080 incubator shaker (New Brunswick Scientific Co., Inc., Edison, N.J., USA) at 150 rpm.
Aliquots of the suspensions, sampled over time, were filtered by centrifugation using a 0.45 μm MULTISCREEN® HV membrane (Millipore, Billerica, Mass., USA) at 2000 rpm for 15 minutes using a SORVALL® RT7 centrifuge (Thermo Fisher Scientific, Waltham, Mass., USA). When not used immediately, the filtered sugary aliquots were frozen at −20° C. Sugar concentrations of the samples diluted in 0.005 M H2SO4 were measured after elution from a 4.6×250 mm AMINEX® HPX-87H column (Bio-Rad, Hercules, Calif., USA) by 0.005 M H2SO4 at a flow rate of 0.4 ml/minute at 65° C. with quantitation by integration of glucose and cellobiose using refractive index detection (CHEMSTATION®, AGILENT® 1100 HPLC, Agilent Technologies, Santa Clara, Calif., USA) calibrated with standards of glucose and cellobiose. The resultant equivalents were used to calculate the percentage of cellulose conversion for each reaction.
Example 30 was repeated with both Cellulolytic Enzyme Composition #1 and Cellulolytic Enzyme Composition #2. Soluble reducing sugars were measured by HPLC as described in Example 30. Reactions without the addition of FeSO4 served as controls.
The hydrolysis was performed in a series of duplicate “mini-scale” hydrolysis reactions according to the procedure described in Example 30.

[2] = system: Cellulolytic Enzyme Composition #1; assay: mini-plate-scale AVICEL hydrolysis by Cellulolytic Enzyme Composition #1; type: biochemical, Trichoderma reesei
[3] = system: Cellulolytic Enzyme Composition #1; assay: mini-scale AVICEL hydrolysis by Cellulolytic Enzyme Composition #1; type: biochemical, Trichoderma reesei
Protocol: FIGS. 19A, 19B, 19C, and 19D show the effective inhibitory concentration range of Fe(II) on the hydrolysis of AVICEL® by Cellulolytic Enzyme Composition #1 (A and B) and on the hydrolysis of PASC by Cellulolytic Enzyme Composition #1 (C and D). The AVICEL® hydrolysis was conducted with […] of AVICEL® and 0.25 g of Cellulolytic Enzyme Composition #1 per liter of 50 mM sodium acetate pH 5 at 50° C. FeSO4 (mM): (∘) 0, (+) 1, (Δ) 3, (⋄) 5, (□) 10. Dixon plot linear regression line: 1/Rate=(0.035±0.003)[Fe(II)]+(0.043±0.015), r^2=0.978. Rate was estimated from the hydrolysis difference (%) at 24 and 6 hours. The PASC hydrolysis was conducted with 2 g of PASC and 50 mg of Cellulolytic Enzyme Composition #1 per liter of 50 mM sodium acetate pH 5 at 50° C. Dixon plot linear regression line: 1/Rate=(0.0042±0.0003)[Fe(II)]+(0.059±0.002), r^2=0.994. Rates were estimated from the hydrolysis difference (%) at 7 hours.
as §1
In one series of “mini-scale” hydrolysis reactions performed according to the procedure described in Example 30, the effect of 1 mM to 10 mM FeSO4 was evaluated in the hydrolysis of AVICEL® by Cellulolytic Enzyme Composition #1.

[4] = biological target: T1, Trichoderma reesei Cel7A cellobiohydrolase I (Trichoderma reesei, UniProt P62694); assay: PASC hydrolysis by Cel7A cellobiohydrolase I; type: biochemical; conditions: 10 mM FeSO4; 2 g PASC and 40 mg enzyme per liter (FIG. 20A)
T1 construct: made in house
T1 sequence (P62694 18-513): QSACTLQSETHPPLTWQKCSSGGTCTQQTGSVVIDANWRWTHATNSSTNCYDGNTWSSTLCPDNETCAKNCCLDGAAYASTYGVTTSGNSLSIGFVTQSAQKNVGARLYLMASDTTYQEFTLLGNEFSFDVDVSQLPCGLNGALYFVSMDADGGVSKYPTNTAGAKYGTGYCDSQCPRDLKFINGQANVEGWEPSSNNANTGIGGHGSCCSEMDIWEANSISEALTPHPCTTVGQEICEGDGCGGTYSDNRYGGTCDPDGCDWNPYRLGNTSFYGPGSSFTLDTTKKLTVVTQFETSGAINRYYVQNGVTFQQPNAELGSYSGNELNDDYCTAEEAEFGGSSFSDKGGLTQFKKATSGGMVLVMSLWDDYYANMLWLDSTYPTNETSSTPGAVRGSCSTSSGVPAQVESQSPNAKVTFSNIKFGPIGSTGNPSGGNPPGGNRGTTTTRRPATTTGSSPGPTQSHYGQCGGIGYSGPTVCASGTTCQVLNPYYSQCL

[5] = biological target: Trichoderma reesei Cel6A cellobiohydrolase II (Trichoderma reesei, UniProt P07987); conditions: 10 mM FeSO4; 2 g PASC and 40 mg enzyme per liter (FIG. 20B)
Chain of Trichoderma reesei Cel6A cellobiohydrolase II (P07987 25-471): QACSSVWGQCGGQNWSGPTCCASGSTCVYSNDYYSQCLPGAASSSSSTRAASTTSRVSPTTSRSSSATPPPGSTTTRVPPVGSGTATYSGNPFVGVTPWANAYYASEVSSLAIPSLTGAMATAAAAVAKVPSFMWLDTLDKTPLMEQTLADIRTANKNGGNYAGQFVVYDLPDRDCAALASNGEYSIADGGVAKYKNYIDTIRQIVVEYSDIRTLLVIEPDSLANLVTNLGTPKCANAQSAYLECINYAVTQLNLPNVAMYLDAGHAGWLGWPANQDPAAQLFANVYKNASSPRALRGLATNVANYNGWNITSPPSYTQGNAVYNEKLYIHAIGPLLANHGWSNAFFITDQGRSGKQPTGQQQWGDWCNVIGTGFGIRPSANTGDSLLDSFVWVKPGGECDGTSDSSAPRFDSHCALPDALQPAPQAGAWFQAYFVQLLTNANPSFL
Protocol: The inhibitory effect of ferrous ion was determined on Trichoderma reesei Cel7A cellobiohydrolase I, Trichoderma reesei Cel6A cellobiohydrolase II, Trichoderma reesei Cel7B endoglucanase I, and Trichoderma reesei Cel5A endoglucanase II using PASC as substrate.
A series of duplicate “mini-scale” hydrolysis reactions were performed according to the procedure described in Example 30, except that 10 mM FeSO4 and 2 g of PASC (dry weight) and 40 mg of enzyme per liter of 50 mM sodium acetate pH 5 were used.

[6] = biological target: T2, Trichoderma reesei Cel7B endoglucanase I (Trichoderma reesei, UniProt P07981); assay: PASC hydrolysis by Cel7B endoglucanase I; type: biochemical; conditions: 10 mM FeSO4; 2 g PASC and 40 mg enzyme per liter (FIG. 20C)
T2 construct: made in house; host or cells: Aspergillus oryzae JaL250
T2 sequence (P07981 23-459): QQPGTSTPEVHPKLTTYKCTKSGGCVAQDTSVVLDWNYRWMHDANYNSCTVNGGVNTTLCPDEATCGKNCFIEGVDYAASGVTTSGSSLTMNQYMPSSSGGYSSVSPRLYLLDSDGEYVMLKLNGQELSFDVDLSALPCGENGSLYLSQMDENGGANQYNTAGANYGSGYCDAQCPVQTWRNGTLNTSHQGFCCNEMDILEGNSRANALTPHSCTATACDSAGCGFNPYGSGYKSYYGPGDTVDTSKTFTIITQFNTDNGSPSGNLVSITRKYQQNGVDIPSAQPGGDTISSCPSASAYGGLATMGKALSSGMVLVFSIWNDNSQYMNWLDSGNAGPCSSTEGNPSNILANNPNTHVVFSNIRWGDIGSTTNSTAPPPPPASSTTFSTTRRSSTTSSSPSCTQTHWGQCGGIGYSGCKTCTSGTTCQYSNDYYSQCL

[7] = biological target: T3, Trichoderma reesei Cel5A endoglucanase II (Trichoderma reesei, UniProt P07982); assay: PASC hydrolysis by Cel5A endoglucanase II; type: biochemical; conditions: 10 mM FeSO4; 2 g PASC and 40 mg enzyme per liter (FIG. 20D)
T3 construct: made in house; host or cells: Aspergillus oryzae JaL250 (transformant JaL250AlLo27)
T3 sequence (P07982 22-418): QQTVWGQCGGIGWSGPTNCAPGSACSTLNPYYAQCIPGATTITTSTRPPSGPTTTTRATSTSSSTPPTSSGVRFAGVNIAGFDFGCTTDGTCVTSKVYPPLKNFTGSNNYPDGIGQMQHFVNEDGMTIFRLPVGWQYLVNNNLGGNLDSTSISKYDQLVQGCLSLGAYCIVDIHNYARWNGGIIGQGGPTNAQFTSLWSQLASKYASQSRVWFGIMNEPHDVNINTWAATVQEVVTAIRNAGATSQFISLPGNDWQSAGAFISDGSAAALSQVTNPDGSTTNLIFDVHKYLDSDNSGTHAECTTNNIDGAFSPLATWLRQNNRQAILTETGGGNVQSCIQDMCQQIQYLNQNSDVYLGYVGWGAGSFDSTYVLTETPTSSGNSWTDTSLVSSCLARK

[8] = biological target: T4, Aspergillus oryzae CEL3A beta-glucosidase (Aspergillus oryzae, UniProt Q2UUD6); assay: Cellobiose hydrolysis by CEL3A beta-glucosidase; type: biochemical; conditions: 10 mM FeSO4; 2 g cellobiose and 1 mg enzyme per liter (FIG. 21)
T4 construct: made in house
T4 sequence (Q2UUD6 20-861): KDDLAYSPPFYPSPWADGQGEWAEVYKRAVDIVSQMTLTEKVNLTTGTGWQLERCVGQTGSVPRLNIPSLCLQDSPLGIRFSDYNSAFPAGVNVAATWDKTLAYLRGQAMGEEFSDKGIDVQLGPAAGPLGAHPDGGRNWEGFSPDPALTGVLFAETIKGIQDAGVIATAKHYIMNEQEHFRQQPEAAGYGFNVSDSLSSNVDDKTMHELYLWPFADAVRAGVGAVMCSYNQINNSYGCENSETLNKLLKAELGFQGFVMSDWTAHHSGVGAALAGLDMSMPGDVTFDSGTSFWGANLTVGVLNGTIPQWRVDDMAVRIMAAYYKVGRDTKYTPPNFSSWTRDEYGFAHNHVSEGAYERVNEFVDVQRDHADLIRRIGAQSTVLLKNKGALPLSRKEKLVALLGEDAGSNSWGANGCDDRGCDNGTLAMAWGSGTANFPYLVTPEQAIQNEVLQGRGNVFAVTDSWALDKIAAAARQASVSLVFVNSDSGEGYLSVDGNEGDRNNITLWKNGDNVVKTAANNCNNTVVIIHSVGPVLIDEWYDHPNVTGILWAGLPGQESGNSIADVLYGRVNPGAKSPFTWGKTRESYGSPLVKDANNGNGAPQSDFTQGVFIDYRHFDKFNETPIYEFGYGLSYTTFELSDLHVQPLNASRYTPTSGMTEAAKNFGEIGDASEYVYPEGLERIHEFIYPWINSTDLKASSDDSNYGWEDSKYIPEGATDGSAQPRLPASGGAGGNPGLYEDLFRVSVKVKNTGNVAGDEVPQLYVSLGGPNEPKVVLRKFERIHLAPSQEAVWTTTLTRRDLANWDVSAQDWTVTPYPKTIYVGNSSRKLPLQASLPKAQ
Protocol: The Fe(II) inhibition of Aspergillus oryzae CEL3A beta-glucosidase was measured similarly, except cellobiose replaced PASC. The initial rate vs Fe(II) concentration plots appeared as “mixed” type, whose complexity prevented extraction of Kis.

Ferrous sulfate [FeSO4] was tested, and the “Effect on PCS hydrolysis” value [1] was “significantly inhibited”, the “Effect on hydrolysis over concentration range” value ([2]; 0.1 to 10 mM) was “concentration-dependent inhibition” and the “Type of inhibition (double-reciprocal plots)” value ([2]; 0.5 to 4 mM FeSO4, 0.6 to 4 g AVICEL per liter) was “mix-type inhibition”. The “Concentration dependence of inhibition” value ([3]; 1 mM to 10 mM FeSO4, AVICEL (FIG. 19A)) was “increasingly inhibitory”, the Ki ([3]; on AVICEL, 23 g AVICEL and 0.25 g enzyme per liter, read-out: Ki (x-intercept of Dixon plot)) was about 1300 µM and the Effect on enzyme [4] was “significantly inhibited”. The Effect on enzyme [5] was “significantly inhibited”, the Effect on enzyme [6] was “significantly inhibited” and the Effect on enzyme [7] was “significantly inhibited”. For the same substance, the Effect on enzyme [8] was “slightly inhibited”.

Reference: patent US20090130707A1, “Methods of reducing the inhibitory effect of a redox active metal ion on the enzymatic hydrolysis of cellulosic material” (priority 2007, published 2009)
